According to DBAASP:
Values after ≈ are worked out from the molar mass of the structure shown.

Tests used:
Experiment in all cases: ≥ marks a high value that may be exact or a test limit, other limits are often not marked, values filed in µg/mL are converted to µM
[1] = test system: Bacillus subtilis ATCC 6633
[2] = test system: Staphylococcus epidermidis ATCC 12228
[3] = test system: Shigella flexneri ATCC 203
Staphylococcus aureus = test system: Staphylococcus aureus
[4] = test system: Micrococcus luteus ATCC 9341
[5] = test system: Corynebacterium diphtheriae ATCC 8024
[6] = test system: Candida albicans ATCC 36232
[7] = test system: Pseudomonas aeruginosa ATCC 9027
[8] = test system: Escherichia coli ATCC 2592
[9] = test system: Staphylococcus aureus ATCC 6538
[10] = test system: Escherichia coli IFO 3301
[11] = test system: Bacillus subtilis IFO 3336
[12] = test system: Trichophyton mentagrophytes IFO 5466
Pseudomonas aeruginosa = test system: Pseudomonas aeruginosa
[13] = test system: Trypanosoma brucei brucei GUT Tat3.1
[14] = test system: Staphylococcus aureus KO-4
[15] = test system: Pseudomonas aeruginosa CCARM 2109
[16] = test system: Staphylococcus aureus CCARM 3543
[17] = test system: Escherichia coli KCTC 1682
[18] = test system: Bacillus subtilis KCTC 3068
[19] = test system: Salmonella typhimurium KCTC 1926
[20] = test system: Pseudomonas aeruginosa CCARM 2095
[21] = test system: Staphylococcus aureus KCTC 1621
[22] = test system: Staphylococcus aureus CCARM 3001
[23] = test system: Candida albicans KCTC 7965
[24] = test system: Pseudomonas aeruginosa KCTC 1637
[25] = test system: Staphylococcus epidermidis KCTC 1917

CC(C)C[C@H](NC(=O)[C@@H]1CSSC[C@H](NC(=O)[C@H](C)NC(=O)[C@H](C)NC(=O)[C@@H](N)CC(=O)O)C(=O)N[C@@H](C)C(=O)N[C@@H](C)C(=O)N[C@@H](Cc2cnc[nH]2)C(=O)N1)C(=O)N[C@@H](Cc1ccccc1)C(=O)N[C@@H](CCCN=C(N)N)C(N)=O [DAACAAHCLFR]
MIC [1]: ≥ 84.9 µM | MIC [2]: > 84.9 µM | MIC [3]: ≥ 84.9 µM | MIC (Staphylococcus aureus): > 84.9 µM | MIC [4]: ≥ 84.9 µM | MIC [5]: ≥ 84.9 µM | MIC [6]: ≥ 84.9 µM | MIC [7]: > 84.9 µM | MIC [8]: ≥ 84.9 µM | MIC [9]: > 84.9 µM

NC(N)=NCCC[C@H](NC(=O)[C@H](Cc1cnc[nH]1)NC(=O)[C@H](CCCN=C(N)N)NC(=O)[C@H](Cc1cnc[nH]1)NC(=O)[C@@H](N)CCCN=C(N)N)C(=O)N[C@@H](Cc1cnc[nH]1)C(=O)O [RHRHRH]
MIC [10]: ≥ 111 µM | MIC [11]: ≥ 111 µM

CC[C@H](C)[C@H](NC(=O)[C@H](CCCN=C(N)N)NC(=O)[C@H](CC(C)C)NC(=O)[C@H](CC(C)C)NC(=O)[C@H](CC(C)C)NC(=O)[C@@H](N)CCCN=C(N)N)C(=O)NCC(=O)N[C@@H](CCCN=C(N)N)C(=O)N[C@@H](CCCN=C(N)N)C(N)=O [RLLLRIGRR]
MIC [12]: 13 µM (≈ 15 µg/mL) | MIC (Pseudomonas aeruginosa): 347 µM (≈ 400 µg/mL) | MIC [13]: ≥ 325 µM | MIC [14]: ≥ 521 µM

CC(C)C[C@H](NC(=O)[C@H](Cc1c[nH]c2ccccc12)NC(=O)[C@H](CCCNC(=N)N)NC(=O)[C@H](CCCNC(=N)N)NC(=O)[C@H](Cc1c[nH]c2ccccc12)NC(=O)[C@H](CCCNC(=N)N)NC(=O)[C@H](CCCNC(=N)N)NC(=O)[C@H](Cc1c[nH]c2ccccc12)NC(=O)[C@H](CC(C)C)NC(=O)[C@@H](N)CCCNC(=N)N)C(=O)N[C@@H](CCCNC(=N)N)C(=O)O [RLWRRWRRWLR]
MIC [15]: 16 µM (≈ 27.8 µg/mL) | MIC [16]: 2 µM (≈ 3.48 µg/mL) | MIC [17]: 8 µM (≈ 13.9 µg/mL) | MIC [18]: 4 µM (≈ 6.96 µg/mL) | MIC [19]: 2 µM (≈ 3.48 µg/mL) | MIC [20]: 16 µM (≈ 27.8 µg/mL) | MIC [21]: 4 µM (≈ 6.96 µg/mL) | MIC [22]: 8 µM (≈ 13.9 µg/mL) | MIC [23]: ≥ 64 µM | MIC [24]: 8 µM (≈ 13.9 µg/mL) | MIC [25]: 2 µM (≈ 3.48 µg/mL)
